In patent publication US20090029369A1, “GENETIC SELECTION SYSTEM TO IDENTIFY PROTEASES, PROTEASE SUBSTRATES AND PROTEASE INHIBITORS” (priority 2005, published 2009):
Substitutions are numbered along the chain they refer to.

Columns and labels:
CMV protease [1] = molecular target: T1, CMV protease (Human cytomegalovirus, UniProt P16753); experiment: Western blot of Trp1(194)-M substrate cleavage by CMV protease in yeast; format: cell-based; parameters: The CMV protease gene encoding amino acids 1-256 of the 75 kDa precursor was obtained by PCR from CMV infected MRC5 human cells; expressed in transfected cells; host or cells: Saccharomyces cerevisiae RLY07; Protease on plasmid pMH51 under the GAL1 promoter
Method: Yeast whole cell extracts were prepared as described by Burke et al. (Burke, Dawson et al. 2000). Proteins were separated by SDS-PAGE and Western blot analysis was performed according to standard procedures (Ausubel et al., 2003, Current Protocols in Molecular Biology). An HA-monoclonal antibody from Sigma (clone 3F10) was used at a concentration of 30 ng/ml to detect expression of TRP1(194)-M.
The Western blot was performed to provide biochemical evidence for inhibition of cleavage of CMV protease by compound BI36 (FIG. 5B). […] As in the Western blot on FIG. 3C, unfortunately no cleavage products could be detected.

CMV protease [2] = molecular target: T1, CMV protease; experiment: yeast growth selection assay: RLY07 cells co-expressing Trp1(194)-M substrate and CMV protease; format: cell-based; parameters: The CMV protease gene encoding amino acids 1-256 of the 75 kDa precursor was obtained by PCR from CMV infected MRC5 human cells; expressed in transfected cells; host or cells: Saccharomyces cerevisiae RLY07 (pdr5Δ snq2Δ yor1Δ); Protease on CEN4-ARS1 plasmid pMH51 under the GAL1 promoter; settings: for effect of increasing concentrations on cell proliferation: concentration series, active protease, ~2 days at 30° C., 96-well plates
Method: (§1) RLY07 cells transformed with the different TRP1-M constructs and a plasmid encoding the CMV protease or the empty vector were inoculated in 3 ml of 2% galactose -ura -leu medium and grown at 30° C. to OD600 1. They were washed with 5 ml H2O and resuspended in 2% galactose -ura -leu -trp medium supplemented with 10% glycerol (=growth selection medium, glycerol promotes CMV protease dimerisation and subsequent proteolytic activity) and diluted to a start OD600 0.01. For the experiments with the coxackievirus 3C protease, preculture medium was 2% glucose -ura -leu, assay medium was 2% glucose -ura -leu trp, and inoculation OD600 0.001. At time zero, assay cultures at the aforesaid start OD600 were distributed in 96-well microtiter plates, with a volume of 150 μl per well, and incubated without shaking at 30° C. At the time points indicated in the “results” section, plates were shaken to resuspend cells before being submitted to light scattering measurement at 595 nm in a Tecan Genios reader for determining cell density.
CMV protease inhibitors BI31 and BI36 (Boeringher Ingelheim, Quebec) were dissolved in DMSO and added to the assay cultures at time zero of the growth assay. Final DMSO concentration was 1%.
RLY07 cells co-expressing Trp1^194-M substrate and the CMV protease were incubated with a concentration series of BI31 and BI36 in 96-well microtiter plates and cultivated under selective conditions. […] Importantly, despite this toxicity BI31 still stimulates growth of cells expressing the active protease (triangles). For example, at 50 μM cell density is multiplied by a factor 4 despite 25% toxicity.

RLY07 cells = experiment: growth of RLY07 cells expressing the inactive, point-mutated CMV protease (toxicity control); format: cell-based, S. cerevisiae
Method: as §1
CMV protease inhibitors BI31 and BI36 (Boeringher Ingelheim, Quebec) were dissolved in DMSO and added to the assay cultures at time zero of the growth assay. Final DMSO concentration was 1%. […]

[3] = molecular target: Trp1-2C/3A substrate: yeast Trp1p with the 13 amino acid coxsackievirus B3 2C/3A cleavage sequence inserted after Gly194 (Saccharomyces cerevisiae; coxsackievirus B3) (UniProt P00912); experiment: cell-based or functional assay
[4] = molecular target: Trp1(194)-M (long): yeast Trp1p with the 39 amino acid CMV M-site cleavage sequence inserted after Gly194 (Saccharomyces cerevisiae; human cytomegalovirus) (UniProt P00912); experiment: cell-based or functional assay
[5] = molecular target: Trp1(194)-M (short): yeast Trp1p with the 13 amino acid CMV M-site cleavage sequence inserted after Gly194 (Saccharomyces cerevisiae; human cytomegalovirus) (UniProt P00912); experiment: cell-based or functional assay
[6] = molecular target: T2, Trp1(194)-M with HA tags at both the N-terminus and the C-terminus, P00912
T2 chain: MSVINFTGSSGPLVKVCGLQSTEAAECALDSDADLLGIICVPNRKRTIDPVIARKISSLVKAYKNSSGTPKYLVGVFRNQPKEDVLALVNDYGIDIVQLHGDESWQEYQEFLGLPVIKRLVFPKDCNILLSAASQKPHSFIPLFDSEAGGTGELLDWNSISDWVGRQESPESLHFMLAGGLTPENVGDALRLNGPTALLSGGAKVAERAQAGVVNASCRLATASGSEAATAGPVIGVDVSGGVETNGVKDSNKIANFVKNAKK

[7] = molecular target: point-mutated Trp1(194)-M (A→E) substrate with HA tags, as blotted, P00912

Molecule: CN(Cc1ccc([N+](=O)[O-])cc1)C(=O)N1C(=O)C[C@@H]1CSc1nnnn1C [BI36]
- inhibition of proteolysis (Western blot) (CMV protease [1]; 10 μM): only slightly inhibited
- inhibition of cleavage (Western blot) (CMV protease [1]; 100 μM): inhibits the cleavage almost completely
- inhibition of substrate cleavage (Western blot) (CMV protease [1]; concentration series 100 μM, 30 μM, 10 μM): prevented substrate cleavage in a dose-dependent manner
- EC50 (CMV protease [2]): 31 µM
- CMV protease inhibition judged from OD600 versus cells expressing inactive protease (CMV protease [2]; 100 μM): almost completely inhibited
- effect of increasing concentrations on cell proliferation (CMV protease [2]): dose-dependent increase of cell proliferation

Molecule: CN(Cc1ccc(C(F)(F)F)cc1)C(=O)N1C(=O)C[C@@H]1CSc1ncccn1 [BI31]
- toxicity (RLY07 cells; 50 μM): 25%
- toxic effect on cells (decrease of cell proliferation) (RLY07 cells; increasing concentrations, cells expressing inactive protease): dose-dependent toxic effect
- factor by which cell density is multiplied (CMV protease [2]; 50 μM, cells expressing the active protease): 4
- effect of increasing concentrations on cell proliferation (CMV protease [2]): dose-dependent increase of cell proliferation

Molecule: cysteine protease 3C from coxsackievirus B3 (from UniProt P03313 1541-1723) (enzyme)
- cell growth in selective medium lacking tryptophan after 27 h at 30° C., against cells expressing only the substrate [3]: 60%

Molecule: human cytomegalovirus (CMV) protease, amino acids 1-256 of the 75 kDa precursor (from UniProt P16753 1-256) (enzyme)
- proliferation reduction in medium lacking tryptophan for 38 h [4]: 85%
- OD600 of co-expressing RLY07 cells in liquid selective medium after 36 hours, against control cells with an empty plasmid instead of the protease plasmid [5]: 35%
- proliferation reduction in medium lacking tryptophan for 38 h (FIG. 3B, lanes 1, 2) [5]: 35%

B1: human cytomegalovirus (CMV) protease, amino acids 1-256 of the 75 kDa precursor (protein)
chain: MTMDEQQSQAVAPVYVGGFLARYDQSPDEAELLLPRDVVEHWLHAQGQGQPSLSVALPLNINHDDTAVVGHVAAMQSVRDGLFCLGCVTSPRFLEIVRRASEKSELVSRGPVSPLQPDKVVEFLSGSYAGLSLSSRRCDDVEAATSLSGSETTPFKHVALCSVGRRRGTLAVYGRDPEWVTQRFPDLTAADRDGLRAQWQRCGSTAVDASGDPFRSDSYGLLGNSVDALYIRERLPKLRYDKQLVGVTERESYVKA
- anti-HA Western blot of yeast extracts, full-length 33 kDa substrate band (FIG. 3C, lane 2) [6]: Co-expression of active CMV protease (lane 2) causes disappearance of the full-length substrate
- anti-HA Western blot, 33 kDa band (FIG. 5B, lane 2) [6]: co-expressing the active protease instead of the inactive version causes disappearance of the 33 kDa band
- anti-HA Western blot of yeast extracts, full-length substrate band (FIG. 3C, lane 4) [7]: active protease has no effect on the point-mutated Trp1(194)-M (A→E) substrate, as the band is also present

B2: inactive version of the CMV protease harbouring the S(132) A mutation at the catalytic site (protein)
chain: B1 chain with S132A
- anti-HA Western blot of yeast extracts, full-length 33 kDa substrate band (FIG. 3C, lane 3) [6]: the inactive CMV protease does not cleave the Trp1(194)-M substrate (since the full-length substrate band does not disappear)
- anti-HA Western blot, 33 kDa band (FIG. 5B, lane 1) [6]: A 33 kDa band corresponds to the full-length Trp1(194)-M substrate upon co-expression with inactive CMV protease
